Assay results reported in the supplement of paper PMC4862054.

Columns and labels:
Settings in all cases: incubation time: 72 h
DU-4475 [1] = test: normalised response (% of control), CellTiter-Glo; higher = more viable cells (100 = DMSO, 0 = benzethonium chloride kill control)
Method in brief: (§1)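 Normalised signals at single concentrations make up the values. They come from breast cancer cell lines seeded (20 µl suspension) into 384-well plates with compound at 5 concentrations in 10-fold steps over a compound-specific 10,000-fold range, incubated 72 h, and read for CellTox Green fluorescence then CellTiter-Glo luminescence. Each plate was normalised to 0.1 % DMSO (100) and a positive kill control (0).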

MCF-10A = test: as above
Method in brief: as §1

MDA-MB-453 [2] = test: as above
Method in brief: as §1

MDA-MB-436 [3] = test: as above
Method in brief: as §1

CAL-85-1 [4] = test: as above
Method in brief: as §1

BT-549 [5] = test: as above
Method in brief: as §1

MDA-MB-231 [6] = test: as above
Method in brief: as §1

HCC1937 [7] = test: as above
Method in brief: as §1

CAL-148 [8] = test: as above
Method in brief: as §1

SK-BR-3 [9] = test: as above
Method in brief: as §1

CAL-120 [10] = test: as above
Method in brief: as §1

BT-474 [11] = test: as above
Method in brief: as §1

HDQ-P1 [12] = test: as above
Method in brief: as §1

HCC1599 [13] = test: as above
Method in brief: as §1

MFM-223 [14] = test: as above
Method in brief: as §1

Hs578T [15] = test: as above
Method in brief: as §1

MDA-MB-468 [16] = test: as above
Method in brief: as §1

CAL-51 [17] = test: as above
Method in brief: as §1

HCC1143 [18] = test: as above
Method in brief: as §1

DU-4475 [19] = test: normalised viability (% of control), CellTiter-Blue; higher = more viable cells (100 = DMSO, 0 = benzethonium chloride kill control)
Procedure: (§2)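 DSRT, CellTiter-Blue viability, 72 h incubation. Signal is normalised to DMSO and benzethonium chloride controls. Value is the normalised response at dose 1.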

MDA-MB-453 [20] = test: as above
Procedure: as §2

MDA-MB-436 [21] = test: as above
Procedure: as §2

CAL-85-1 [22] = test: as above
Procedure: as §2

BT-549 [23] = test: as above
Procedure: as §2

MDA-MB-231 [24] = test: as above
Procedure: as §2

HCC1937 [25] = test: as above
Procedure: as §2

CAL-148 [26] = test: as above
Procedure: as §2

SK-BR-3 [27] = test: as above
Procedure: as §2

CAL-120 [28] = test: as above
Procedure: as §2

BT-474 [29] = test: as above
Procedure: as §2

HDQ-P1 [30] = test: as above
Procedure: as §2

HCC1599 [31] = test: as above
Procedure: as §2

MFM-223 [32] = test: as above
Procedure: as §2

Hs578T [33] = test: as above
Procedure: as §2

MDA-MB-468 [34] = test: as above
Procedure: as §2

CAL-51 [35] = test: as above
Procedure: as §2

HCC1143 [36] = test: as above
Procedure: as §2

Row | SMILES | normalised response (DU-4475 [1]) [%] | normalised response (MCF-10A) [%] | normalised response (MDA-MB-453 [2]) [%] | normalised response (MDA-MB-436 [3]) [%] | normalised response (CAL-85-1 [4]) [%] | normalised response (BT-549 [5]) [%] | normalised response (MDA-MB-231 [6]) [%] | normalised response (HCC1937 [7]) [%] | normalised response (CAL-148 [8]) [%] | normalised response (SK-BR-3 [9]) [%] | normalised response (CAL-120 [10]) [%] | normalised response (BT-474 [11]) [%] | normalised response (HDQ-P1 [12]) [%] | normalised response (HCC1599 [13]) [%] | normalised response (MFM-223 [14]) [%] | normalised response (Hs578T [15]) [%] | normalised response (MDA-MB-468 [16]) [%] | normalised response (CAL-51 [17]) [%] | normalised response (HCC1143 [18]) [%] | normalised viability (DU-4475 [19]) [%] | normalised viability (MDA-MB-453 [20]) [%] | normalised viability (MDA-MB-436 [21]) [%] | normalised viability (CAL-85-1 [22]) [%] | normalised viability (BT-549 [23]) [%] | normalised viability (MDA-MB-231 [24]) [%] | normalised viability (HCC1937 [25]) [%] | normalised viability (CAL-148 [26]) [%] | normalised viability (SK-BR-3 [27]) [%] | normalised viability (CAL-120 [28]) [%] | normalised viability (BT-474 [29]) [%] | normalised viability (HDQ-P1 [30]) [%] | normalised viability (HCC1599 [31]) [%] | normalised viability (MFM-223 [32]) [%] | normalised viability (Hs578T [33]) [%] | normalised viability (MDA-MB-468 [34]) [%] | normalised viability (CAL-51 [35]) [%] | normalised viability (HCC1143 [36]) [%]
1 | COCC1(CO)C(=O)C2CCN1CC2 (stereo unspecified) [Prima-1 Met] (1 nM) | 102 | 108 | 116 | 102 | 101 | 104 | 101 | 95.5 | 107 | 109 | 97.1 | 102 | 108 | 101 | 104 | 99.1 | 107 | 81.5 | 98.8 | 120 | 93.9 | 104 | 90.5 | 106 | 89.7 | 74.9 | 93.2 | 104 | 86.9 | 96.1 | 83 | 123 | 98.7 | 114 | 108 | 90.5 | 91.1
2 | CNC(=O)c1cc(Oc2ccc(NC(=O)Nc3ccc(Cl)c(C(F)(F)F)c3)c(F)c2)ccn1 [Regorafenib] (1 nM) | 102 | 104 | 115 | 99.9 | 104 | 99.9 | 100 | 96.4 | 94.2 | 112 | 94.1 | 95.7 | 100 | 110 | 97.2 | 99.5 | 114 | 90.1 | 98.5 | 121 | 105 | 104 | 88.9 | 102 | 101 | 83.5 | 103 | 100 | 89.7 | 91.4 | 88.5 | 131 | 106 | 84.9 | 108 | 96 | 100
3 | CO[C@H]1C[C@@H]2CC[C@@H](C)[C@@](O)(O2)C(=O)C(=O)N2CCCC[C@H]2C(=O)O[C@H]([C@H](C)C[C@@H]2CC[C@@H](OP(C)(C)=O)[C@H](OC)C2)CC(=O)[C@H](C)/C=C(\C)[C@@H](O)[C@@H](OC)C(=O)[C@H](C)C[C@H](C)/C=C/C=C/C=C/1C [Ridaforolimus] (0.1 nM) | 105 | 105 | 96.3 | 98.1 | 101 | 91.2 | 99.3 | 93.1 | 104 | 105 | 101 | 99.6 | 94.1 | 96.5 | 101 | 97.7 | 96.5 | 114 | 102 | 100 | 93 | 105 | 82.1 | 91 | 112 | 108 | 99.4 | 81.8 | 84.8 | 94 | 78.4 | 104 | 82.2 | 97.7 | 96.8 | 97.2 | 88
4 | c1ccc2c(CCNc3ccc(Nc4ccncc4)cc3)c[nH]c2c1 [Serdemetan] (1 nM) | 95.7 | 86.1 | 112 | 86.4 | 101 | 102 | 97.1 | 93.9 | 91 | 104 | 96.8 | 93.8 | 96.7 | 115 | 98.8 | 99.2 | 98.8 | 114 | 98.5 | 95.2 | 99.2 | 104 | 85.3 | 106 | 98.5 | 95.9 | 107 | 95 | 79 | 99.8 | 99.9 | 92.4 | 82.8 | 97.5 | 105 | 110 | 86.3
5 | CN(C)CCOc1ccc(/C(=C(/CCCl)c2ccccc2)c2ccccc2)cc1 [Toremifene] (1 nM) | 103 | 107 | 119 | 98.7 | 98.4 | 104 | 106 | 96.2 | 104 | 111 | 103 | 102 | 98.6 | 106 | 103 | 110 | 106 | 114 | 98.5 | 107 | 112 | 126 | 90.9 | 113 | 101 | 142 | 108 | 102 | 83.5 | 114 | 107 | 105 | 104 | 106 | 113 | 104 | 97.7
6 | CC(C)C[C@@H](C(=O)N[C@H](C(=O)OC1CCCC1)c1ccccc1)[C@H](O)C(=O)NO [Tosedostat] (1 nM) | 103 | 98.7 | 110 | 103 | 103 | 100 | 107 | 97.4 | 104 | 109 | 103 | 100 | 100 | 106 | 105 | 94.4 | 102 | 108 | 100 | 93.3 | 108 | 100 | 101 | 92.1 | 114 | 86.9 | 109 | 108 | 100 | 98.7 | 130 | 106 | 94.3 | 118 | 111 | 112 | 102
7 | COc1cc2/c(=N/c3ccc(Br)cc3F)nc[nH]c2cc1OCC1CCN(C)CC1 [Vandetanib] (1 nM) | 94.8 | 89.4 | 86 | 86.1 | 92.6 | 92.7 | 91.7 | 102 | 83.8 | 68.2 | 88.7 | 85.2 | 90.7 | 81.8 | 87 | 93.9 | 88.1 | 118 | 96.2 | 110 | 94.7 | 81.1 | 110 | 87.6 | 88.2 | 82.5 | 98.4 | 84 | 124 | 107 | 56.1 | 112 | 94.8 | 101 | 94.9 | 97 | 106
8 | COCC[n+]1c2c(n(Cc3cnccn3)c1C)C(=O)c1ccccc1C2=O [YM155] (1 nM) | 94.7 | 82.1 | 86.2 | 81.3 | 89.6 | 96 | 99.6 | 89.8 | 93.3 | 80.6 | 94.7 | 86.8 | 109 | 84.7 | 86.8 | 92.5 | 93.6 | 119 | 88.8 | 108 | 93.3 | 101 | 107 | 102 | 83 | 90.1 | 105 | 94.5 | 99.2 | 103 | 81.3 | 136 | 98.8 | 107 | 85.3 | 92.4 | 114
